The numbers were not newly measured in patent publication US6107321A, “Diazabicyclooctane derivatives having selective 5-HT1Dalpha agonist activity” (Merck Sharp & Dohme Ltd., priority 1995, dated 2000), which cites them from elsewhere.

The test system of series [1] is human 5-HT1D.sbsb.α and 5-HT1D.sbsb.β receptor subtypes. The note with it: cf. WO-A-91/17174, Table 1.
The subject of series [2] is humans. The note with it: therapeutic doses.

On to `CNS(=O)(=O)Cc1ccc2[nH]cc(CCN(C)C)c2c1` [sumatriptan], for which the “discrimination between the human 5-HT1Dα and 5-HT1Dβ receptor subtypes” value in series [1] is on record as “barely discriminates”. Moreover, in series [2], the adverse cardiovascular events result is “certain adverse cardiovascular events”.
